# Tested on: intradermal capsaicin injection model (secondary hyperalgesia)
# Assay: Human surrogate model of neuropathic pain (intradermal capsaicin injection), placebo-controlled double-blind crossover study
# Format: in vivo
# Description: This surrogate model of neuropathic pain is thus a valid method for early clinical testing of substances for the treatment of neuropathic pain. The efficacy of the neramexane, a moderate affinity, uncompetitive NMDA receptor antagonist, was tested in a placebo-controlled double-blind crossover study in the intradermal capsaicin injection model. Capsaicin (40 μg) was injected intradermally in the skin of the ventral forearm 3 hours after administration of a single oral dose of neramexane hydrochloride (40 mg) or placebo. Changes of pain sensitivity adjacent to the capsaicin injection and in a remote control area were tested in parallel by quantitative sensory testing prior to oral neramexane or placebo, 2½ hours after neramexane or placebo (i.e., prior to capsaicin injection) and 1½ hours after capsaicin injection. The capsaicin injection elicited a strong, over 5-10 min rapidly declining burning pain resulting in enhanced pain sensitivity adjacent to the injection including hyperalgesia to pin prick and pain to light touch (“allodynia”).
compound,measurement,setting,value
"CC1(C)CC(C)(C)CC(C)(N)C1 [neramexane, 1-amino-1,3,3,5,5-pentamethylcyclohexane]",size of the capsaicin-induced axon reflex erythema,single oral dose 40 mg,remained unaltered
same,summation of pain to repetitive pin prick stimulation (trains of 10 stimuli at 1 Hz),single oral dose 40 mg,never changed
same,reduction of capsaicin-induced burning pain compared to placebo,"single oral dose 40 mg, 2nd-5th min after capsaicin injection, n.s.",33%
same,reduction of pain to stroking light touch stimuli (allodynia),"single oral dose 40 mg, across all test times, p=0.07",22%
same,reduction of pain of noxious pin pricks compared to placebo (analgesia),"single oral dose 40 mg, control area at any time and test area before capsaicin injection, p<0.001",27-31%
same,reduction of pain to stroking light touch stimuli (allodynia),"single oral dose 40 mg, first 30 min after capsaicin injection, p<0.05",25%
same,"antihyperalgesia alone, calculated from the ratio of test and control area","single oral dose 40 mg, not significant",9%
same,reduction of pin prick pain compared to placebo (combined analgesia and antihyperalgesia),"single oral dose 40 mg, test area after capsaicin injection, p<0.001",39%
same,reduction of capsaicin-induced burning pain compared to placebo,"single oral dose neramexane hydrochloride 40 mg, 3 hours before capsaicin 40 μg intradermal, first minute after injection, p<0.01",21%
